Patent US10143711B2, “Pathways to generate hair cells” (Massachusetts Eye & Ear Infirmary, priority 2008, dated 2018)

How the values were obtained:
Atoh1 = assay: Gene silencing with siRNA in neural progenitor cells and Neuro2a (RT-PCR); format: cell-based, mouse; conditions: 200 nM siRNA; for decrease of Atoh1 expression: harvested after 48 hours, neural progenitor cells and Neuro2a
Description: The data shown in Examples 1-3 was corroborated using gene silencing. Briefly, siRNA were designed to silence Atoh1 (NM 007500.4, NM 005172.1) and β-catenin (NM_007614.2 and NM_001904.3), as shown below: Atoh1:
200 nM of each siRNA were transfected using the GeneSilencer™ transfection reagent at 5 μL/mL. Cells were incubated in the presence of the transfection mix for 16 hours and were harvested following a total of 48 hours. Non-targetting siRNA was used as control. Gene silencing was confirmed using RT-PCR. Cells were also transfected with Atoh1, β-catenin, or GFP using the methods described above.

Atoh1 and β-catenin = assay: β-catenin and Atoh1 expression in bone marrow derived MSCs on Notch inhibition and β-catenin activation; format: cell-based, human
From the text: Notch signaling was inhibited using a γ-secretase inhibitor (DAPT) and β-catenin was activated using a GSK3β inhibitor (GSKi). […] Altered Notch activity was confirmed using CBF-1 luciferase reporter.
Mesenchymal stem cells (MSCs) were isolated from human bone marrow using the methods described by Jeon et al. (Mol. Cell. Neurosci., 34(1):59-68, (2007)). Cells were expanded once before use and cultured in MEM-α cell culture media (Sigma-Aldrich) supplemented with 9% horse serum, 9% fetal calf serum, and penicillin (100 U/mL) and streptomycin (100 μg/mL).

Molecule | β-catenin expression levels (Atoh1; all cell types tested) | decrease of Atoh1 expression (Atoh1) | Atoh1 expression (Atoh1 and β-catenin; MSCs with γ-secretase treatment and siRNA suppression of β-catenin) | β-catenin expression (Atoh1 and β-catenin; human bone marrow MSCs, DAPT used at 10 μM and 50 μM)
β-catenin siRNA: siRNA designed to silence β-catenin, SEQ ID NO:17 (GCGCUUGGCUGAACCAUCAUUGUGAAAUUCUUGGCUAUUAUU; listed as RNA, chemistry not given here) | suppressed | about 40% | reduced | –
Atoh1 siRNA: siRNA designed to silence Atoh1, SEQ ID NO:16 (GCAACGUUAUCCCGUCCUUUAACAGCGAUGAUGGCACA; listed as RNA, chemistry not given here) | – | about 45% | – | –
C[C@H](NC(=O)Cc1cc(F)cc(F)c1)C(=O)N[C@H](C(=O)OC(C)(C)C)c1ccccc1 [γ-secretase inhibitor, N—[N-(3,5-difluorophenacetyl)-L-alanyl]-(S)-phenylglycine t-butyl ester] | – | – | – | increased
